Measured values from ChEMBL document CHEMBL1144693, “Botryolides A-E, decarestrictine analogues from a fungicolous Botryotrichum sp. (NRRL 38180)” (J Nat Prod, 2008).
Activity calls are given as the source filed them.

What was measured:
Format in all cases: functional, organism-based
Aspergillus flavus = assay: Antifungal activity against Aspergillus flavus NRRL 6541 at 100 ug/disk
Staphylococcus aureus = assay: Antibacterial activity against Staphylococcus aureus ATCC 25923 at 100 ug/disk
Bacillus subtilis = assay: Antibacterial activity against Bacillus subtilis ATCC 6051 at 100 ug/disk
Fusarium verticillioides = assay: Antifungal activity against Fusarium verticillioides NRRL 25457 at 100 ug/disk
Candida albicans = assay: Antifungal activity against Candida albicans ATCC 14053 at 100 ug/disk

Measured: Activity

C[C@@H]1C[C@H](O)C(=O)CCC(O)CC(=O)O1 (stereo partly drawn)
inactive: all assays above

C[C@@H]1C[C@@H]2O[C@@H]2[C@H]2O[C@@H]2[C@@H](O)CC(=O)O1
inactive: all assays above

C[C@@H]1C[C@@H]2O[C@@H]2/C=C/[C@]2(CC(=O)O1)C[C@@H](O)C(=O)O2
inactive: Staphylococcus aureus | Bacillus subtilis | Candida albicans

C[C@@H]1C[C@@H]2O[C@@H]2/C=C/[C@H](O)CC(=O)O1
inactive: all assays above
